Results on two molecules are retold here after article PMC12948245, “Fluorinated Carnitine Derivatives as Tools to Visualise Carnitine Transport and Metabolism” (Advanced Science, 2025).

For assay [1], the target named is T1, OCTN2 (Homo sapiens, UniProt O76082).
T1 construct: gene SLC22A5; endogenous full-length transporter in intact H460 cells; identity supported by OCTN2 siRNA knockdown (siRNA L-007456-00-0005)
T1 sequence (O76082 1-557): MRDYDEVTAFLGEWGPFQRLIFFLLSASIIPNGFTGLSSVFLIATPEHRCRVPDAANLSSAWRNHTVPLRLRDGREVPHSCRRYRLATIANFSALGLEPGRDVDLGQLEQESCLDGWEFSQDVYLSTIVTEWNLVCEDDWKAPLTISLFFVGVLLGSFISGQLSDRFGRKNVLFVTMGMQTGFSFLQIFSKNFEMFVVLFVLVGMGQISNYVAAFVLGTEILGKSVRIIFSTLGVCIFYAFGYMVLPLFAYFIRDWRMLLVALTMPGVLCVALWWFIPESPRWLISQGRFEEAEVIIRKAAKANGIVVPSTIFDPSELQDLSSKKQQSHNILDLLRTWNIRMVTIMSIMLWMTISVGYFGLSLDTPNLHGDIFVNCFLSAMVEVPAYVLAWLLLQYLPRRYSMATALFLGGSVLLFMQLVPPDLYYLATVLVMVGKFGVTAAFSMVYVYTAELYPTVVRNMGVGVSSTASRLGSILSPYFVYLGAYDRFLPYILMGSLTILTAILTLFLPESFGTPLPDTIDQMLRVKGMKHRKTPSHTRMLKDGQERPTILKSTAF
Kind of assay: competitive inhibition of […]FMC uptake in H460 cells, gamma counting. The format is cell-based. The conditions noted are these: HBSS, 37 °C, 60 min; [18F]FMC as tracer; endogenous transporter; n = 3.

The target of assay [2] is T1, OCTN2. The experiment in a line: inhibition of […]FMC uptake in H460 cells by co-incubation. The conditions noted are these: HBSS, 37 °C, 60 min; inhibitor concentration of this test not given. In kind it is cell-based.

Structures are written as SMILES.

Broadly, the IC50 is the concentration at which inhibition is half-maximal. Regarding `C[N+](C)(C)C[C@H](O)CC(=O)O` [ʟ-carnitine], the IC50 on OCTN2 [1] was found to be 4.8 ± 1.6 µM.

For the molecule `C[N+](C)(C)NCCC(=O)[O-]` [meldonium], on OCTN2 [2], the “% reduction of [18F]FMC uptake” value amounted to 78.1 ± 10.2%.
